Values of other authors as cited in patent US20060160230A1, “Wipes and methods for removal of metal contamination from surfaces” (The Government of the United States of America as …, priority 2005, published 2006).

Key:
[1] = 10% citric acid lotion applied topically for a three month period (Bernstein et al. 1997)
[2] = 1999; rinse-off cosmetic products

Compound | clinical signs of adverse effects [1] | safety conclusion of CIR Expert Panel [2]
O=C(O)CC(O)(CC(=O)O)C(=O)O [citric acid] | No clinical signs of adverse effects | 
isostearamidopropyl morpholine lactate [ISML] |  | considered safe for use in rinse-off cosmetic products
